The compounds below were run against MAPKAPK2 (Homo sapiens, UniProt P49137) (assay: HTS ATP-utilizing enzyme assay, off-chip mobility-shift (Caliper HTS 250)). Conditions: test compound 10 μM, kinase listed = active (greater than six-sigma from the mean activity of inactive compounds).
Assay type: biochemical
Description: The following procedures describe the reagent and plate preparation for a HTS of an ATP-utilizing enzyme, such as a protein kinase, run in an off-chip mobility-shift assay format. The following provides an HTS protocol for running a protein kinase HTS screen on a Caliper HTS 250 microfluidics system. The following parameters are dependent on the protein kinase used and can be determined by one skilled in the art as part of a typical assay development process. For example, the peptide substrate used can be identified from the current literature, by screening a peptide library of potential protein kinase substrates, or by other applicable means accepted in the field.
The following table provides typical screen assay parameters appropriate for a Caliper HTS 250 microfluidics system.
The reagents and buffers listed in the following table are generally applicable for developing and running an HTS screen on a human protein kinase using the Caliper HTS 250 system.
The following reagents were prepared using the previously described buffers.
A 2× Master Buffer solution was prepared by combining 200 mL of 1 M HEPES, pH 7.5, 2 mL of 10% Triton X-100, 20 mL of 10% BSA, and 778 mL of H2O.
A TCB Buffer solution was prepared by combining 125 mL of 2× Master Buffer, 10 mL of 0.5 M EDTA, 6.25 mL of 4% coating reagent, 1.01 mL of 100% DMSO, and 107.74 mL H2O.
Assays to determine the kinase inhibitory activity of compounds of the present disclosure were performed using a Caliper HTS 250 microfluidics device, Greiner U-bottom assay plates, a Multidrop for transfer of reagents, and Biomek FX (AMNCBM03) software. Initially, 2.4 μL of a 1 mM solution of a test compound in 100% DMSO was added to a well of the Greiner U-bottom plate. A single Greiner U-bottom plate having 24×16 wells could include multiple test compounds. […] Using the Biomek FX, 10 μL of 0.5 M EDTA was added by the span-8 to wells, indicated as 100% Control and 2.4 μL of 100% DMSO was added by the span-8 to wells, indicated as 0% Control. […] The total reaction volume in each well was 25 μL, and the concentration of the test compound was 10 μM. The assay plate was incubated for 2.5 hrs at 20° C. to 22° C. […] The inhibition of the ATP-utilizing enzyme, such as a particular protein kinase, was determined by measuring the ratio of the peptide substrate to phosphorylated product for each well of the assay plate using the Caliper HTS 250 system.
The use of six-sigma statistical limits represents a conservative method for declaring potential hits among targets. The six-sigma activity, as well as the mean population activity, can be different for each target enzyme.

MAPKAPK2, sequence (P49137 whole entry): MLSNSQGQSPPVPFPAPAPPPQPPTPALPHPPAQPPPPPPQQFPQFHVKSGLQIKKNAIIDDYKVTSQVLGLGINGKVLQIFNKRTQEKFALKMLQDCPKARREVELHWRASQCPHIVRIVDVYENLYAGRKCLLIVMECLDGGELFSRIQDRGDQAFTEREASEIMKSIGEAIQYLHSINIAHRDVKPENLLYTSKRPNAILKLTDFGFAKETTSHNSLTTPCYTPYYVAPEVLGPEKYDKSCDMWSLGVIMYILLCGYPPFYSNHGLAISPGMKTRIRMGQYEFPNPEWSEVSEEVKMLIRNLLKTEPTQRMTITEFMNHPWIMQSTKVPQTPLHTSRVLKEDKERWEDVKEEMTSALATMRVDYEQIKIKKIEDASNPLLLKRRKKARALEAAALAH

Structure (SMILES)	Activity
Cc1cc(-c2ccc3nccc(Nc4ccc(N5CCC(N(C)C)C5)cc4)c3c2)cnc1Cl (stereo not drawn) [6-(6-chloro-5-methylpyridin-3-yl)-N-(4-(3-(dimethylamino)pyrrolidin-1-yl)phenyl)quinolin-4-amine]	MAPKAPK2
CN(C)CC1CCCN(c2ccc(Nc3ccnc4ccc(-c5ccc(C#N)cc5)cc34)cc2)C1 (stereo not drawn) [4-(4-(4-(3-((dimethylamino)methyl)piperidin-1-yl)phenylamino)quinolin-6-yl)benzonitrile]	MAPKAPK2
CN(C)[C@H]1CCN(c2ccc(Nc3ccnc4ccc(-c5ccc(C#N)cc5)cc34)cc2)C1 [(S)-4-(4-(4-(3-(dimethylamino)pyrrolidin-1-yl)phenylamino)quinolin-6-yl)benzonitrile]	MAPKAPK2
CN1CCN(c2ccc(Nc3ccnc4ccc(-c5ccc(Cl)cc5)cc34)cn2)CC1 [6-(4-chlorophenyl)-N-(6-(4-methylpiperazin-1-yl)pyridin-3-yl)quinolin-4-amine]	MAPKAPK2
CCCN1CCN(c2ccc(Nc3ccnc4ccc(-c5ccc(OC)cc5)cc34)cc2)CC1 [6-(4-methoxyphenyl)-N-(4-(4-propylpiperazin-1-yl)phenyl)quinolin-4-amine]	MAPKAPK2
Cc1ccc(-c2ccc3nccc(Nc4ccc(N5CCC(N(C)C)C5)cc4)c3c2)cc1Cl (stereo not drawn) [6-(3-chloro-4-methylphenyl)-N-(4-(3-(dimethylamino)pyrrolidin-1-yl)phenyl)quinolin-4-amine]	MAPKAPK2
CN(C)CC1CCN(c2ccc(Nc3ccnc4ccc(-c5ccc(C#N)cc5)cc34)cc2)CC1 [4-(4-(4-(4-((dimethylamino)methyl)piperidin-1-yl)phenylamino)quinolin-6-yl)benzonitrile]	MAPKAPK2
CN(C)C1CCCN(c2ccc(Nc3ccnc4ccc(-c5ccc(C#N)cc5)cc34)cc2)C1 (stereo not drawn) [4-(4-(4-(3-(dimethylamino)piperidin-1-yl)phenylamino)quinolin-6-yl)benzonitrile]	MAPKAPK2
CN(C)[C@@H]1CCN(c2ccc(Nc3ccnc4ccc(-c5ccc(C#N)cc5)cc34)cc2)C1 [(R)-4-(4-(4-(3-(dimethylamino)pyrrolidin-1-yl)phenylamino)quinolin-6-yl)benzonitrile]	MAPKAPK2
N#Cc1ccc(-c2ccc3nccc(Nc4ccc(N5CCN(CCCO)CC5)cc4)c3c2)cc1 [4-(4-(4-(4-(3-hydroxypropyl)piperazin-1-yl)phenylamino)quinolin-6-yl)benzonitrile]	MAPKAPK2
CCCCN1CCN(c2ccc(Nc3ccnc4ccc(-c5ccc(OC)cc5)cc34)cc2)CC1 [N-(4-(4-butylpiperazin-1-yl)phenyl)-6-(4-methoxyphenyl)quinolin-4-amine]	MAPKAPK2
CCC(C)N1CCN(c2ccc(Nc3ccnc4ccc(-c5ccccc5)cc34)cc2)CC1 (stereo not drawn) [N-(4-(4-sec-butylpiperazin-1-yl)phenyl)-6-phenylquinolin-4-amine]	MAPKAPK2
CCC(CC)N1CCN(c2ccc(Nc3ccnc4ccc(-c5ccccc5)cc34)cc2)CC1 [N-(4-(4-(pentan-3-yl)piperazin-1-yl)phenyl)-6-phenylquinolin-4-amine]	MAPKAPK2
CCCN(c1ccc(N2CCN(C)CC2)cc1)c1ccnc2ccc(-c3ccccc3)cc12 [N-(4-(4-methylpiperazin-1-yl)phenyl)-6-phenyl-N-propylquinolin-4-amine]	MAPKAPK2
CN1CCN(c2ccc(Nc3ccnc4ccc(-c5ccccc5C(N)=O)cc34)cc2)CC1 [2-(4-(4-(4-methylpiperazin-1-yl)phenylamino)quinolin-6-yl)benzamide]	MAPKAPK2
CN(C)C1CCN(c2ccc(Nc3ccnc4ccc(-c5csc6ccccc56)cc34)cc2)C1 (stereo not drawn) [6-(benzo[b]thiophen-3-yl)-N-(4-(3-(dimethylamino)pyrrolidin-1-yl)phenyl)quinolin-4-amine]	MAPKAPK2
COc1cc(-c2ccc3nccc(Nc4ccc(N5CCC(N(C)C)C5)cc4)c3c2)ccc1Cl (stereo not drawn) [6-(4-chloro-3-methoxyphenyl)-N-(4-(3-(dimethylamino)pyrrolidin-1-yl)phenyl)quinolin-4-amine]	MAPKAPK2
C=Cc1ccc(-c2ccc3nccc(Nc4ccc(N5CCC(N(C)C)C5)cc4)c3c2)cc1 (stereo not drawn) [N-(4-(3-(dimethylamino)pyrrolidin-1-yl)phenyl)-6-(4-vinylphenyl)quinolin-4-amine]	MAPKAPK2
CN(C)C1CCN(c2ccc(Nc3ccnc4ccc(-c5cccc6[nH]ccc56)cc34)cc2)C1 (stereo not drawn) [N-(4-(3-(dimethylamino)pyrrolidin-1-yl)phenyl)-6-(1H-indol-4-yl)quinolin-4-amine]	MAPKAPK2
CN(C)C1CCN(c2ccc(Nc3ccnc4ccc(-c5ccc6[nH]c(=O)sc6c5)cc34)cc2)C1 (stereo not drawn) [6-(4-(4-(3-(dimethylamino)pyrrolidin-1-yl)phenylamino)quinolin-6-yl)benzo[d]thiazol-2(3H)-one]	MAPKAPK2
N#Cc1ccc(-c2ccc3nccc(Nc4ccc(N5CCN(C6CCCCC6)CC5)cc4)c3c2)cc1 [4-(4-(4-(4-cyclohexylpiperazin-1-yl)phenylamino)quinolin-6-yl)benzonitrile]	MAPKAPK2
CN1CCN(c2ccc(Nc3ccnc4ccc(-c5cc(Cl)ccc5Cl)cc34)cc2)CC1 [6-(2,5-dichlorophenyl)-N-(4-(4-methylpiperazin-1-yl)phenyl)quinolin-4-amine]	MAPKAPK2
CN(C)CCN1CCN(c2ccc(Nc3ccnc4ccc(-c5ccccc5)cc34)cc2)CC1 [N-(4-(4-(2-(dimethylamino)ethyl)piperazin-1-yl)phenyl)-6-phenylquinolin-4-amine]	MAPKAPK2
CN1CCC(N(C)c2ccc(Nc3ccnc4ccc(-c5ccc(C#N)cc5)cc34)cc2)C1 (stereo not drawn) [4-(4-(4-(methyl(1-methylpyrrolidin-3-yl)amino)phenylamino)quinolin-6-yl)benzonitrile]	MAPKAPK2
Cc1cc(-c2ccc3nccc(Nc4ccc(N5CCC(N(C)C)C5)cc4)c3c2)ccc1Cl (stereo not drawn) [6-(4-chloro-3-methylphenyl)-N-(4-(3-(dimethylamino)pyrrolidin-1-yl)phenyl)quinolin-4-amine]	MAPKAPK2
CN(C)[C@H]1CCN(c2ccc(Nc3ccnc4ccc(-c5ccc6ccccc6c5)cc34)cc2)C1 [(S)-N-(4-(3-(dimethylamino)pyrrolidin-1-yl)phenyl)-6-(naphthalen-2-yl)quinolin-4-amine]	MAPKAPK2
CN(C)C1CCN(c2ccc(Nc3ccnc4ccc(-c5ccc(OC(F)F)cc5)cc34)cc2)C1 (stereo not drawn) [6-(4-(difluoromethoxy)phenyl)-N-(4-(3-(dimethylamino)pyrrolidin-1-yl)phenyl)quinolin-4-amine]	MAPKAPK2
CCCCN1CCN(c2ccc(Nc3ccnc4ccc(-c5ccc(C#N)cc5)cc34)cc2)CC1 [4-(4-(4-(4-butylpiperazin-1-yl)phenylamino)quinolin-6-yl)benzonitrile]	MAPKAPK2
COc1ccc(-c2ccc3nccc(Nc4ccc(N5CCC(N(C)C)C5)cc4)c3c2)cc1F (stereo not drawn) [N-(4-(3-(dimethylamino)pyrrolidin-1-yl)phenyl)-6-(3-fluoro-4-methoxyphenyl)quinolin-4-amine]	MAPKAPK2
CCCCN1CCN(c2ccc(Nc3ccnc4ccc(-c5ccccc5)cc34)cc2)CC1 [N-(4-(4-butylpiperazin-1-yl)phenyl)-6-phenylquinolin-4-amine]	MAPKAPK2

Reference: patent publication US7452887B2, “Quinoline- and isoquinoline-based compounds exhibiting ATP-utilizing enzyme inhibitory activity, and compositions, and uses thereof” (Amphora Discovery Corporation, priority 2004, dated 2008)
